Activity calls are given as the source filed them. The calls are words filed in the database; no cut-off is given here.

A short description of experiment [1]: Growth inhibition of human HL60 cells at 10 uM after 48 hrs by MTT assay. The note with it: HL-60, 48 h, read-out: GI. The format is functional.
In experiment [2] the test system is HL-60. Description: Induction of cell differentiation of human HL60 cells at 10 uM in presence of 0.1 uM ATRA after 72 hrs by NBT dye based assay. The format is functional.
Experiment [3] has as its system HL-60. Description: Induction of cell differentiation of human HL60 cells at 10 uM after 72 hrs by NBT dye based assay. The experiment is classed as functional.
The target in a further experiment is T1, Cytochrome P450 26A1 (Homo sapiens, UniProt O43174).
T1 sequence (O43174 whole entry): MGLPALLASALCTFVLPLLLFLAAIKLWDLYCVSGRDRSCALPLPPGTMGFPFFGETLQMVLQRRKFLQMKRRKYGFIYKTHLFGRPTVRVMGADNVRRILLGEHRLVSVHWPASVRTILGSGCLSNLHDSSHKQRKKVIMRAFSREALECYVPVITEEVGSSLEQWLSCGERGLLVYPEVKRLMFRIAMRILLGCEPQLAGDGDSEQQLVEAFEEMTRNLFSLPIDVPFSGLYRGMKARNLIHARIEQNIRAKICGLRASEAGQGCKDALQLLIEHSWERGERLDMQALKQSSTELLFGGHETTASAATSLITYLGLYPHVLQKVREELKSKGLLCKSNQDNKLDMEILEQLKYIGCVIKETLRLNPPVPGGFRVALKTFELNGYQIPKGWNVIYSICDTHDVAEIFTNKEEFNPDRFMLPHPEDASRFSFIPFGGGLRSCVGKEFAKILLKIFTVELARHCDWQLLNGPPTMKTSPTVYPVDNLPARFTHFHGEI
Briefly: Inhibition of CYP26A1 in ATRA-induced human HL60 cell microsomes incubated for 30 mins using ATRA and NADPH by HPLC method. The format is cell-based, HL-60.

Experiment [4] in a line: Growth inhibition of human HL60 cells at 10 uM in presence of 0.1 uM ATRA after 48 hrs by MTT assay. The experiment is classed as functional, HL-60. For orientation: Tetrazolium dyes change colour on reduction, which living cells bring about.
A short description of experiment [5]: Growth inhibition of human HL60 cells at 0.1 uM after 48 hrs by MTT assay. The note with it: HL-60, 48 h, read-out: GI. The format is functional.
Experiment [6] relates to HL-60. Briefly: Induction of CYP26A1 expression in human HL60 cells at 0.1 uM after 72 hrs. The experiment is classed as functional, cell-based.
Experiment [7] concerns HL-60. Description: Induction of cell differentiation of human HL60 cells at 0.1 uM after 72 hrs by NBT dye based assay. The format is functional.

For orientation: IC50 means the midpoint of a concentration-inhibition curve. As to `Cc1cc(C(=O)NC(CC(=O)O)c2ccc(Cl)cc2)c(C)o1` (configuration not stated), in experiment [1], the inhibition of growth at 10 µM came out at 10.3%. The results for the Activity in the experiment with HL-60 [2] and in the experiment with HL-60 [3] were 46.61% and 0%, respectively. On Cytochrome P450 26A1, this compound yielded a half-inhibitory concentration (IC50) of 2.73 µM. Besides, in experiment [4], the “growth inhibition (GI)” value was 49.53%.

Turning to `Cc1nn(-c2ccccc2)c(Cl)c1C(=O)NC(CC(=O)O)c1cccc(Br)c1` (configuration not stated), the inhibition of growth at 10 µM in experiment [1] amounted to 6.16%. In addition, the Activity in the experiment on HL-60 [2] turned out to be 48.51%; with HL-60 [3], 0%. In addition, the midpoint of inhibition against Cytochrome P450 26A1, the IC50, lay at 1.87 µM. For the same compound, the “growth inhibition (GI)” value in experiment [4] is on record as 56.15%.

Take `Clc1cccc(C(c2ccc3[nH]cnc3c2)n2ccnc2)c1` (configuration not stated) [LIAROZOLE]: the inhibition of growth at 10 µM in experiment [1] was determined as 15.4%. In addition, the Activity in the experiment with HL-60 [2] is recorded as 46.71%; in the experiment with HL-60 [3], 0%. The “growth inhibition (GI)” value in experiment [4] is given as 48.26%.

Consider `CC1=C(/C=C/C(C)=C/C=C/C(C)=C/C(=O)O)C(C)(C)CCC1` [TRETINOIN], for which the inhibition of growth at 0.1 µM in experiment [5] amounted to 23.8%. Further, the result in the experiment on HL-60 [6] was Active. The same compound registered an Activity with HL-60 [7] of 26.07%.

On to `Cc1ccc(C(CC(=O)O)NC(=O)c2cc(C)oc2C)cc1` (configuration not stated), for which the inhibition of growth at 10 µM in experiment [1] is 5.85%. For the same compound, the Activity was 42.62% in the experiment with HL-60 [2] and 0% with HL-60 [3]. Further, the IC50 against Cytochrome P450 26A1 is 3.09 µM. In addition, in experiment [4], the “growth inhibition (GI)” value amounted to 44.85%.

The values are drawn from ChEMBL document CHEMBL3397030, “Synthesis and biological evaluation of 3-phenyl-3-aryl carboxamido propanoic acid derivatives as small molecule inhibitors of retinoic acid 4-hydroxylase (CYP26A1)” (Bioorg Med Chem, 2015).
